Test systems include A498; CAKI-1; CCRF-CEM; COLO 205; HCC 2998; HCT-116; HCT-15; K562; MDA-MB-435; Malme-3M; NCI-H226; NCI-H522; NCI/ADR-RES; OVCAR-3; PC-3; RPMI-8226; RXF 393; SK-MEL-5; U-251; UO-31.
What all share (experiment): NCI tumour cell line growth inhibition, 48 h

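Exposure lasted 48 hours, with cells grown in 96-well plates and compounds tested at five concentrations. Abbreviation: GI50, concentration required for 50% inhibition of growth.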 The source made the active and inactive calls. Cut-off read from the data, not from the text of the source: active = GI50 up to about 1.1 µM and inactive = higher.

Take `[N-]=[N+]=CC(=O)COC(=O)c1ccccc1`: the GI50 with A498, in the assay with CAKI-1, in the assay on CCRF-CEM, with COLO 205, with HCC 2998 and with HCT-116 was > 100 µM (inactive) in each case. In addition, the GI50 in the assay with HCT-15 was above 100 µM; in the assay with K562 it was > 100 µM (inactive); in the assay with MDA-MB-435, > 100 µM (inactive); with Malme-3M, > 100 µM (inactive); in the assay with NCI-H226, > 100 µM (inactive); with NCI-H522, > 100 µM (inactive). The GI50 in the assay on NCI/ADR-RES is > 100 µM (inactive); with OVCAR-3, > 100 µM (inactive); in the assay on PC-3 it was > 100 µM (inactive); in the assay with RPMI-8226, 74.1 µM (inactive); in the assay with RXF 393 it was > 100 µM (inactive); with SK-MEL-5, > 100 µM (inactive). For the same molecule, the GI50 in the assay on U-251 and in the assay on UO-31 was > 100 µM (inactive) throughout.
Consider `c1ccc(COc2ccc(C[P+](c3ccccc3)(c3ccccc3)c3ccccc3)cc2)cc1`, for which the GI50 in the assay with A498 is 1.1 µM (active); in the assay on CAKI-1 it was 6.79 µM (inactive); in the assay with CCRF-CEM it was 0.627 µM (active); in the assay with COLO 205, 0.129 µM (active); with HCC 2998, 0.16 µM (active); with HCT-116, 0.104 µM (active). The GI50 was 2.82 µM with HCT-15; 0.0556 µM (active) in the assay with K562; 0.225 µM (active) with MDA-MB-435; 0.361 µM (active) with Malme-3M; 0.504 µM (active) in the assay on NCI-H226; 0.195 µM (active) in the assay on NCI-H522. Further, the GI50 in the assay with NCI/ADR-RES was 13.4 µM (inactive); in the assay with OVCAR-3 it was 0.146 µM (active); with PC-3, 0.131 µM (active); in the assay on RPMI-8226, 0.0257 µM (active); in the assay with RXF 393 it was 0.0395 µM (active); in the assay on SK-MEL-5, 0.108 µM (active). Further, the GI50 in the assay with U-251 is 0.102 µM (active); in the assay on UO-31, 2.94 µM (inactive).
Regarding `CC(=O)OC/C=C/Cn1nc(Br)c(=O)[nH]c1=O`, the GI50 with A498, with CAKI-1, in the assay with CCRF-CEM, in the assay on COLO 205, in the assay on HCC 2998 and in the assay with HCT-116 was > 100 µM (inactive) each time. The GI50 in the assay on HCT-15 is above 100 µM; with K562 it was > 100 µM (inactive); with MDA-MB-435 it was > 100 µM (inactive); with Malme-3M it was > 100 µM (inactive); in the assay with NCI-H226 it was > 100 µM (inactive); with NCI-H522 it was > 100 µM (inactive). Besides, the GI50 in the assay on NCI/ADR-RES, with OVCAR-3, in the assay with PC-3, in the assay on RPMI-8226, with RXF 393 and in the assay with SK-MEL-5 was > 100 µM (inactive) each time. The GI50 in the assay with U-251 and with UO-31 was > 100 µM (inactive) in each case.
As for `COC(=O)/C=C1/OC(c2ccc(C)cc2)=C(Cl)C1=O`, the GI50 with A498 is 17.9 µM (inactive); with CAKI-1 it was 16 µM (inactive); in the assay on CCRF-CEM it was 3.26 µM (inactive); with COLO 205, 11.2 µM (inactive); in the assay on HCC 2998, 18.9 µM (inactive); in the assay with HCT-116 it was 11.7 µM (inactive). Also, the GI50 was 9.25 µM in the assay with HCT-15; 4.97 µM (inactive) with K562; 17.8 µM (inactive) with MDA-MB-435; 17.7 µM (inactive) in the assay with Malme-3M; 23 µM (inactive) in the assay on NCI-H226; 9.4 µM (inactive) in the assay on NCI-H522. The GI50 in the assay on NCI/ADR-RES is 22.1 µM (inactive); with OVCAR-3, 12.4 µM (inactive); with PC-3 it was 13.8 µM (inactive); with RPMI-8226, 3.18 µM (inactive); with RXF 393 it was 7.66 µM (inactive); in the assay with SK-MEL-5, 14.5 µM (inactive). Besides, the GI50 in the assay on U-251 is 12 µM (inactive); in the assay with UO-31, 17.5 µM (inactive).
As to `Cc1nc2ccccc2c(=O)n1/N=C(\N=N\c1cc(Cl)ccc1Cl)c1ccccc1`, the GI50 in the assay on A498 is > 94.2 µM (inactive); in the assay with CAKI-1 it was > 57.3 µM (inactive); with CCRF-CEM it was 48.6 µM (inactive); in the assay on COLO 205, 61.1 µM (inactive); in the assay on HCC 2998, 32.1 µM (inactive); in the assay on HCT-116, 17.4 µM (inactive). Further, the GI50 in the assay with HCT-15 was 31.2 µM; in the assay with K562, > 100 µM (inactive); in the assay with MDA-MB-435 it was 21.3 µM (inactive); with Malme-3M, 41 µM (inactive); in the assay with NCI-H226, 43.1 µM (inactive); with NCI-H522, 29.9 µM (inactive). Further, the GI50 is 26.6 µM (inactive) in the assay on NCI/ADR-RES; 53.2 µM (inactive) with OVCAR-3; 55.3 µM (inactive) in the assay on PC-3; 41.4 µM (inactive) with RPMI-8226; 63.5 µM (inactive) in the assay on RXF 393; 36.2 µM (inactive) in the assay with SK-MEL-5. Besides, the values for the GI50 in the assay with U-251 and in the assay with UO-31 were 27.1 µM (inactive) and 22.9 µM (inactive), respectively.
For `CC(=O)Nc1ccc(S(=O)(=O)/N=C2\C=CC(=O)c3ccccc32)cc1`, the GI50 was 10.3 µM (inactive) in the assay with A498; 17.3 µM (inactive) with CAKI-1; 3.37 µM (inactive) with CCRF-CEM; 13.3 µM (inactive) in the assay with COLO 205; 3.21 µM (inactive) in the assay with HCC 2998; 5.24 µM (inactive) in the assay on HCT-116. For the same molecule, the GI50 is 7.62 µM in the assay on HCT-15; 2.57 µM (inactive) with K562; 1.84 µM (inactive) in the assay on MDA-MB-435; 3.65 µM (inactive) in the assay with Malme-3M; 5.97 µM (inactive) in the assay with NCI-H226; 14.5 µM (inactive) with NCI-H522. The GI50 is 5.9 µM (inactive) with NCI/ADR-RES; 2.45 µM (inactive) in the assay on OVCAR-3; 3.28 µM (inactive) in the assay with PC-3; 4.56 µM (inactive) in the assay on RPMI-8226; 6.38 µM (inactive) in the assay with RXF 393; 2.88 µM (inactive) in the assay on SK-MEL-5. In addition, the figures for the GI50 in the assay on U-251 and in the assay with UO-31 were 5.81 µM (inactive) and 7.48 µM (inactive), respectively.
Regarding `CCOC(CN(C)C(=S)Nc1cccc2ccccc12)OCC`, the GI50 in the assay with A498 is 6.95 µM (inactive); in the assay on CAKI-1, > 10 µM (inactive); in the assay on CCRF-CEM it was > 10 µM (inactive); in the assay with COLO 205 it was > 10 µM (inactive); in the assay on HCC 2998, > 10 µM (inactive); in the assay with HCT-116, > 10 µM (inactive). Besides, the GI50 in the assay on HCT-15 was above 10 µM; in the assay on K562, > 10 µM (inactive); with MDA-MB-435 it was > 10 µM (inactive); in the assay with Malme-3M, > 10 µM (inactive); in the assay on NCI-H226, > 10 µM (inactive); in the assay on NCI-H522, > 10 µM (inactive). Also, the GI50 in the assay on NCI/ADR-RES, with OVCAR-3, in the assay with PC-3, in the assay on RPMI-8226, with RXF 393 and in the assay with SK-MEL-5 was > 10 µM (inactive) in each case. Also, the GI50 in the assay on U-251 and with UO-31 was > 10 µM (inactive) each time.
For the molecule `COc1cccc2c(NNc3ccccc3)c3ccc([N+](=O)[O-])cc3nc12`, the GI50 is 43.5 µM (inactive) in the assay on A498; 12 µM (inactive) in the assay on CAKI-1; 12.5 µM (inactive) in the assay with CCRF-CEM; 46.3 µM (inactive) in the assay with COLO 205; 32.7 µM (inactive) in the assay on HCC 2998; 22.8 µM (inactive) in the assay on HCT-116. The GI50 in the assay with HCT-15 was 33 µM; with K562, 83.4 µM (inactive); with MDA-MB-435, 18.1 µM (inactive); in the assay with Malme-3M, 54.3 µM (inactive); with NCI-H226 it was 24.9 µM (inactive); with NCI-H522, 24.7 µM (inactive). Moreover, the GI50 was 41.5 µM (inactive) with NCI/ADR-RES; 50.2 µM (inactive) in the assay with OVCAR-3; 14.7 µM (inactive) in the assay on PC-3; 7.1 µM (inactive) in the assay with RPMI-8226; 48.9 µM (inactive) in the assay with RXF 393; 37.6 µM (inactive) in the assay on SK-MEL-5. In addition, the figures for the GI50 in the assay with U-251 and in the assay on UO-31 were 21.2 µM (inactive) and 8.67 µM (inactive), respectively.
On to `CCOC(=O)c1sc2nc(SC)nc(Nc3ccc(OC)c(OC)c3)c2c1N`, for which the GI50 is 4.76 µM (inactive) in the assay on A498; 89.9 µM (inactive) in the assay with CAKI-1; 1.3 µM (inactive) in the assay on CCRF-CEM; 83.4 µM (inactive) in the assay with COLO 205; 60 µM (inactive) with HCC 2998; 7.05 µM (inactive) in the assay with HCT-116. Further, the GI50 in the assay on HCT-15 is above 100 µM; in the assay with K562, > 100 µM (inactive); in the assay on MDA-MB-435, 34.3 µM (inactive); in the assay with Malme-3M, 23.2 µM (inactive); in the assay with NCI-H226, 7.94 µM (inactive); in the assay on NCI-H522, 5.79 µM (inactive). The GI50 is 3.48 µM (inactive) in the assay on NCI/ADR-RES; 9.35 µM (inactive) in the assay on OVCAR-3; 63.8 µM (inactive) in the assay with PC-3; 1.84 µM (inactive) in the assay on RPMI-8226; 3.33 µM (inactive) in the assay with RXF 393; 3.61 µM (inactive) in the assay with SK-MEL-5. Besides, the GI50 was 3.03 µM (inactive) in the assay with U-251 and 22.4 µM (inactive) in the assay on UO-31.
As to `CCOC(=O)C1(C(N)=O)C(=O)c2ccncc2C1=O` (stereo not given), the GI50 with A498, with CAKI-1, with CCRF-CEM, with COLO 205, in the assay with HCC 2998 and in the assay with HCT-116 was > 100 µM (inactive) each time. Also, the GI50 in the assay with HCT-15 was above 100 µM; in the assay with K562, > 100 µM (inactive); in the assay with MDA-MB-435, > 100 µM (inactive); with Malme-3M, > 100 µM (inactive); with NCI-H226 it was > 100 µM (inactive); in the assay with NCI-H522, > 100 µM (inactive). The GI50 in the assay on NCI/ADR-RES, in the assay on OVCAR-3, in the assay on PC-3, in the assay on RPMI-8226, in the assay with RXF 393 and in the assay with SK-MEL-5 was > 100 µM (inactive) throughout. In addition, the GI50 in the assay with U-251 and in the assay with UO-31 was > 100 µM (inactive) throughout.
